# Test results taken from PubChem BioAssay AID1745844 (Carcinogenic Potency Database (CPDB), 2022).
# System: rodent lifetime carcinogenesis bioassay, tumor incidence TD50
# Experiment: chronic cancer bioassays in animals – CPDB, compiled studies (AID 1745844)
# Conditions: mouse, strain B6C3F1, inhaled
smiles,measurement,setting,value
C=CC=C,TD50,"females, site: Harderian gland, lesion: adenocarcinoma + adenoma + adenoma, bilateral, dosed 83 weeks, study length 104 weeks",26.2 mg/kg/day
same,TD50,"females, site: Harderian gland, lesion: adenoma + adenoma, bilateral, dosed 83 weeks, study length 104 weeks",26.2 mg/kg/day
same,TD50,"females, site: Zymbal's gland, lesion: adenoma + carcinoma, dosed 83 weeks, study length 104 weeks",3540 mg/kg/day
same,TD50,"females, site: all sites + forestomach + Harderian gland + heart + liver + lung + mammary gland + ovary, lesion: histiocytic sarcoma + malignant lymphoma, mixed type + malignant lymphoma, lymphocytic type + malignant lymphoma, undifferenti, dosed 83 weeks, study length 104 weeks",6.79 mg/kg/day
same,TD50,"females, site: all sites + forestomach + heart + liver + lung + mammary gland + ovary, lesion: malignant lymphoma, NOS + squamous-cell papilloma + hemangiosarcoma + hepatocellular adenoma + hepatocellular carcinoma + alveolar, dosed 61 weeks, study length 61 weeks",53 mg/kg/day
same,TD50,"females, site: all sites, lesion: hemangioma + hemangiosarcoma, dosed 83 weeks, study length 104 weeks",35 mg/kg/day
same,TD50,"females, site: all sites, lesion: hemangiosarcoma, dosed 83 weeks, study length 104 weeks",44.2 mg/kg/day
same,TD50,"females, site: all sites, lesion: histiocytic sarcoma + malignant lymphoma, mixed type + malignant lymphoma, lymphocytic type + malignant lymphoma, undifferenti, dosed 83 weeks, study length 104 weeks",27.4 mg/kg/day
same,TD50,"females, site: all sites, lesion: histiocytic sarcoma, dosed 83 weeks, study length 104 weeks",125 mg/kg/day
same,TD50,"females, site: all sites, lesion: malignant lymphoma, NOS, dosed 61 weeks, study length 61 weeks",270 mg/kg/day
same,TD50,"females, site: all sites, lesion: malignant lymphoma, lymphocytic type, dosed 83 weeks, study length 104 weeks",74.9 mg/kg/day
same,TD50,"females, site: all sites, lesion: malignant lymphoma, mixed type + malignant lymphoma, lymphocytic type + malignant lymphoma, undifferentiated type + malignant, dosed 83 weeks, study length 104 weeks",35.2 mg/kg/day
same,TD50,"females, site: any site (literature study), lesion: several types, types named in the paper, dosed 61 weeks, study length 61 weeks",41.5 mg/kg/day
same,TD50,"females, site: any site (literature study), lesion: several types, types named in the paper, dosed 83 weeks, study length 104 weeks",6.28 mg/kg/day
same,TD50,"females, site: forestomach, lesion: papilloma, NOS + squamous-cell carcinoma + squamous-cell papilloma, dosed 61 weeks, study length 61 weeks",462 mg/kg/day
same,TD50,"females, site: forestomach, lesion: papilloma, NOS + squamous-cell papilloma, dosed 61 weeks, study length 61 weeks",483 mg/kg/day
same,TD50,"females, site: forestomach, lesion: squamous-cell carcinoma + squamous-cell papilloma, dosed 61 weeks, study length 61 weeks",396 mg/kg/day
same,TD50,"females, site: forestomach, lesion: squamous-cell carcinoma + squamous-cell papilloma, dosed 83 weeks, study length 104 weeks",83.9 mg/kg/day
same,TD50,"females, site: forestomach, lesion: squamous-cell carcinoma, dosed 83 weeks, study length 104 weeks",257 mg/kg/day
same,TD50,"females, site: forestomach, lesion: squamous-cell papilloma, dosed 61 weeks, study length 61 weeks",461 mg/kg/day
same,TD50,"females, site: forestomach, lesion: squamous-cell papilloma, dosed 83 weeks, study length 104 weeks",126 mg/kg/day
same,TD50,"females, site: heart + liver + subcutaneous tissue, lesion: hemangiosarcoma, dosed 61 weeks, study length 61 weeks",147 mg/kg/day
same,TD50,"females, site: heart, lesion: hemangiosarcoma, dosed 61 weeks, study length 61 weeks",283 mg/kg/day
same,TD50,"females, site: heart, lesion: hemangiosarcoma, dosed 83 weeks, study length 104 weeks",104 mg/kg/day
same,TD50,"females, site: kidney, lesion: tubule adenoma, dosed 83 weeks, study length 104 weeks",1060 mg/kg/day
same,TD50,"females, site: liver, lesion: hepatocellular adenoma + hepatocellular carcinoma + neoplastic nodule, dosed 61 weeks, study length 61 weeks",1170 mg/kg/day
same,TD50,"females, site: liver, lesion: hepatocellular adenoma + hepatocellular carcinoma + neoplastic nodule, dosed 83 weeks, study length 104 weeks",22.8 mg/kg/day
same,TD50,"females, site: liver, lesion: hepatocellular adenoma + hepatocellular carcinoma, dosed 61 weeks, study length 61 weeks",1170 mg/kg/day
same,TD50,"females, site: liver, lesion: hepatocellular adenoma + hepatocellular carcinoma, dosed 83 weeks, study length 104 weeks",22.8 mg/kg/day
same,TD50,"females, site: liver, lesion: hepatocellular adenoma, dosed 61 weeks, study length 61 weeks",1590 mg/kg/day
same,TD50,"females, site: liver, lesion: hepatocellular adenoma, dosed 83 weeks, study length 104 weeks",28.5 mg/kg/day
same,TD50,"females, site: liver, lesion: hepatocellular carcinoma, dosed 83 weeks, study length 104 weeks",50.5 mg/kg/day
same,TD50,"females, site: lung, lesion: alveolar/bronchiolar adenoma + alveolar/bronchiolar carcinoma + adenocarcinoma, dosed 83 weeks, study length 104 weeks",12.4 mg/kg/day
same,TD50,"females, site: lung, lesion: alveolar/bronchiolar adenoma + alveolar/bronchiolar carcinoma, dosed 61 weeks, study length 61 weeks",203 mg/kg/day
same,TD50,"females, site: lung, lesion: alveolar/bronchiolar adenoma + alveolar/bronchiolar carcinoma, dosed 83 weeks, study length 104 weeks",13.8 mg/kg/day
same,TD50,"females, site: lung, lesion: alveolar/bronchiolar adenoma, dosed 61 weeks, study length 61 weeks",259 mg/kg/day
same,TD50,"females, site: lung, lesion: alveolar/bronchiolar adenoma, dosed 83 weeks, study length 104 weeks",20.3 mg/kg/day
same,TD50,"females, site: lung, lesion: alveolar/bronchiolar carcinoma + adenocarcinoma, dosed 83 weeks, study length 104 weeks",23.9 mg/kg/day
same,TD50,"females, site: lung, lesion: alveolar/bronchiolar carcinoma, dosed 61 weeks, study length 61 weeks",227 mg/kg/day
same,TD50,"females, site: mammary gland, lesion: acinar-cell carcinoma, dosed 61 weeks, study length 61 weeks",1030 mg/kg/day
same,TD50,"females, site: mammary gland, lesion: adenoacanthoma, dosed 83 weeks, study length 104 weeks",87.7 mg/kg/day
same,TD50,"females, site: mammary gland, lesion: adenocarcinoma + adenoacanthoma + mixed tumor, malignant, dosed 83 weeks, study length 104 weeks",47.4 mg/kg/day
same,TD50,"females, site: mammary gland, lesion: adenocarcinoma, dosed 83 weeks, study length 104 weeks",93.3 mg/kg/day
same,TD50,"females, site: mammary gland, lesion: mixed tumor, malignant, dosed 83 weeks, study length 104 weeks",2710 mg/kg/day
same,TD50,"females, site: ovary, lesion: adenoma + mixed tumor, benign, dosed 83 weeks, study length 104 weeks",78.9 mg/kg/day
same,TD50,"females, site: ovary, lesion: adenoma, dosed 83 weeks, study length 104 weeks",217 mg/kg/day
same,TD50,"females, site: ovary, lesion: granulosa-cell carcinoma + granulosa-cell tumor, dosed 61 weeks, study length 61 weeks",370 mg/kg/day
same,TD50,"females, site: ovary, lesion: granulosa-cell carcinoma, dosed 61 weeks, study length 61 weeks",7580 mg/kg/day
same,TD50,"females, site: ovary, lesion: granulosa-cell tumor, benign + granulosa-cell tumor, bilateral, dosed 83 weeks, study length 104 weeks",98 mg/kg/day
same,TD50,"females, site: ovary, lesion: granulosa-cell tumor, benign + granulosa-cell tumor, malignant, dosed 83 weeks, study length 104 weeks",65.4 mg/kg/day
same,TD50,"females, site: ovary, lesion: granulosa-cell tumor, malignant, dosed 83 weeks, study length 104 weeks",198 mg/kg/day
same,TD50,"females, site: ovary, lesion: mixed tumor, benign, dosed 83 weeks, study length 104 weeks",202 mg/kg/day
same,TD50,"females, site: subcutaneous tissue, lesion: neurofibrosarcoma + sarcoma, dosed 83 weeks, study length 104 weeks",128 mg/kg/day
same,TD50,"females, site: subcutaneous tissue, lesion: sarcoma, dosed 83 weeks, study length 104 weeks",131 mg/kg/day
same,TD50,"males, site: Harderian gland, lesion: adenocarcinoma + adenocarcinoma, bilateral, dosed 13 weeks, study length 104 weeks",63.5 mg/kg/day
